{
  "source": "ChEMBL document CHEMBL5465560",
  "about": "“Selectivity Literature for EUbOPEN Chemogenomic Library” (2024)",
  "key": {"[1]": {"target": "Serine/threonine-protein kinase Nek4 (Homo sapiens) (UniProt P51957)", "sequence (P51957 whole entry, looked up)": "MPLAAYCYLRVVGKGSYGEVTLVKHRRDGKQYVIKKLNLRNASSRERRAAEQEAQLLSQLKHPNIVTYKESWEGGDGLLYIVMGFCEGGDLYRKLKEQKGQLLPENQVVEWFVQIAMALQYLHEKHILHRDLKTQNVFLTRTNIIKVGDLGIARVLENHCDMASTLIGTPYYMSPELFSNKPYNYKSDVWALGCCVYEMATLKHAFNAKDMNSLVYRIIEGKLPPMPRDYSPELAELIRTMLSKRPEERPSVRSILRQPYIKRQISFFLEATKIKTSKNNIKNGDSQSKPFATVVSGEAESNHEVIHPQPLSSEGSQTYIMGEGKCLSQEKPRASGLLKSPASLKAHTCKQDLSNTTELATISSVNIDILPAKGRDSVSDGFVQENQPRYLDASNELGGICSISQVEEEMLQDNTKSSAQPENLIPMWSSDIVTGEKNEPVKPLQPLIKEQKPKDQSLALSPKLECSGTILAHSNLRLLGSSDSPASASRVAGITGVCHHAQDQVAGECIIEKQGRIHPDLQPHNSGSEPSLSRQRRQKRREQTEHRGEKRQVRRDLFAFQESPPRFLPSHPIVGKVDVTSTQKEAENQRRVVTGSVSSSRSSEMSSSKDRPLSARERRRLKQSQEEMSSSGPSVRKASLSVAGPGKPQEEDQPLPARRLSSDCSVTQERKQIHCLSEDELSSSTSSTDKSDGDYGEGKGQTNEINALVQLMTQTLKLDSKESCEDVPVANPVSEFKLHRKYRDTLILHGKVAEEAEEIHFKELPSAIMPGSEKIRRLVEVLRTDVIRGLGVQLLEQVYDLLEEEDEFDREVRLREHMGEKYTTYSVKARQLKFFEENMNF", "test": "Selectivity interaction (SelectScreen profiling (Invitrogen)) EUB0000607a NEK4", "details": "at 2 µM"}, "[2]": {"target": "T1, Mitogen-activated protein kinase kinase kinase kinase 2 (Homo sapiens) (UniProt Q12851)", "T1 sequence (whole entry)": "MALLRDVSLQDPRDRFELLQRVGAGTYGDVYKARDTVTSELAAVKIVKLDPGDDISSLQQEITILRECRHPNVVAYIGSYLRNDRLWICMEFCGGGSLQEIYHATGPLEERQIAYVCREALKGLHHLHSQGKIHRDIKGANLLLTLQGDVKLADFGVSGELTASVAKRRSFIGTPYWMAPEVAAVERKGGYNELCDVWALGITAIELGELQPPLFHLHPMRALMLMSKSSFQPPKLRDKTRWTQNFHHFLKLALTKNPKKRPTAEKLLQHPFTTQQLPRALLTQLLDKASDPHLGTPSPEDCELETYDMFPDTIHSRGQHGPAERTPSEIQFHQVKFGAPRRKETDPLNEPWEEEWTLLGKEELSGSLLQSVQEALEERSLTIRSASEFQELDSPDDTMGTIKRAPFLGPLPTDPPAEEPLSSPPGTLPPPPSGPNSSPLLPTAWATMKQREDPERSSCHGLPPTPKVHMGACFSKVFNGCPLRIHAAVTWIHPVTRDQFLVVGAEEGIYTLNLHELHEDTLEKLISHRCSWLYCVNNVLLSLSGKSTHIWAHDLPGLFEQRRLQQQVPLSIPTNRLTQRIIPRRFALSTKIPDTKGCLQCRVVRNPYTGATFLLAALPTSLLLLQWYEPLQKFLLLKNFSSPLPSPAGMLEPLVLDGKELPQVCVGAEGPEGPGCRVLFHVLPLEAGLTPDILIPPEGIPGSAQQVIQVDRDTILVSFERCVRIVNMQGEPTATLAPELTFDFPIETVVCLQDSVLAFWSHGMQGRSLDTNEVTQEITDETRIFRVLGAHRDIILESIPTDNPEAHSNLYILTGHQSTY", "test": "Selectivity interaction (KinomeScan (DiscoverX)) EUB0001049a MAP4K2", "details": "at 1 µM"}, "[3]": {"target": "T2, Serine/threonine-protein kinase BRSK1 (Homo sapiens) (UniProt Q8TDC3)", "T2 sequence (whole entry)": "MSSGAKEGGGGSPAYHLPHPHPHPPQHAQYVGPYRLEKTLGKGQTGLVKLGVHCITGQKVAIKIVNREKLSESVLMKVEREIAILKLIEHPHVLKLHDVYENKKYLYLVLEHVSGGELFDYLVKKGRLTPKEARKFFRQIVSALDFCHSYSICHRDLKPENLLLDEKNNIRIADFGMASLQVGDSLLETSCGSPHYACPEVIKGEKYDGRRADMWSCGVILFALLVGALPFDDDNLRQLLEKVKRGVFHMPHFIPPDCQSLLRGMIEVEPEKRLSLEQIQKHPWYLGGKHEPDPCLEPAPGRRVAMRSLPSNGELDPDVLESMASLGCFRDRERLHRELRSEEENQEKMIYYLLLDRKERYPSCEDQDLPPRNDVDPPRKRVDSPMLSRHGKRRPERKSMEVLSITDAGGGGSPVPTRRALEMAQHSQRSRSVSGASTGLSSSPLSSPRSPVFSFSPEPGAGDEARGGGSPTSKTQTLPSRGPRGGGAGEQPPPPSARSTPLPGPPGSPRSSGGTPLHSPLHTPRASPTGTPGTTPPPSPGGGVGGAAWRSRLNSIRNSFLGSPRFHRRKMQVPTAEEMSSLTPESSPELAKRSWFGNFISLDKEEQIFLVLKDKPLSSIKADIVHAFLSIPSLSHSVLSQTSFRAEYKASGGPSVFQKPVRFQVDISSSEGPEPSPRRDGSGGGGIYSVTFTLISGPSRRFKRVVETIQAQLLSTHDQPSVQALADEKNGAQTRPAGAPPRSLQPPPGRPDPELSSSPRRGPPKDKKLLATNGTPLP", "test": "Selectivity interaction (KinomeScan (DiscoverX)) EUB0001619a BRSK1", "details": "at 1 µM"}},
  "data": [
    {"smiles": "CNC(=O)Nc1ccc(-c2nc(N3CC4CCC(C3)O4)c3cnn(C4CCC5(CC4)OCCO5)c3n2)cc1", "values": [
      {"measurement": "% of inhibition", "setting": "[1]", "result": 7, "unit": "%"}
    ]},
    {"smiles": "COc1cc(Nc2nc(C)cc(-c3cnn4nc(OC)ccc34)n2)cc(C(F)(F)F)c1", "values": [
      {"measurement": "% of control", "setting": "[2]", "result": 99, "unit": "%"}
    ]},
    {"smiles": "N#Cc1cccc(-c2c[nH]c3ncnc(N4CCOCC4)c23)c1", "values": [
      {"measurement": "% of control", "setting": "[3]", "result": 100, "unit": "%"}
    ]}
  ]
}
